In patent US11896583B2, “Tinostamustine for use in treating ovarian cancer” (EURO-CELTIQUE S.A., priority 2017, dated 2024):

Tested on: tumour spheroids from primary ovarian cancer tissue
Test: Ovarian cancer spheroid model, ATP assay (CellTiter-Glo) of cell viability / metabolic activity
Experimental: Fresh primary ovarian cancer samples were obtained after informed consent of the individual patient was given. Patients were recruited following clinical diagnosis, and prior to chemotherapy commencing.
Heterotypic tumour spheroids were prepared from the individual primary ovarian cancer tissue. The tumour samples were mechanically and enzymatically digested using an enzyme cocktail (Roche, Penzberg Germany), cell viability determined using the trypan-blue exclusion test, and spheroids seeded at a cell density of 50,000 using a modified liquid overlay method. After 48 h in cell culture under standard conditions, successful spheroid formation was documented photographically before starting treatment.
Each experiment was repeated six times, and both untreated (medium) control and two positive controls (carboplatin+paclitaxel and vorinostat) were used under the same culture conditions. Treatment efficacy, i.e. treatment-induced reduction of the cellular metabolic activity (cell viability) was analyzed using a standard ATP assay.
Once the feasibility study was completed, tumour spheroids consisting of 50,000 cells were prepared from the individual primary ovarian cancer tissue as described above. After 48 h, spheroid formation was documented photographically before starting treatment. […] Treatment efficacy was evaluated using a standard ATP assay, details of which are provided below.
ATP assay test from Promega: CellTiter-Glo®. The CellTiter-Glo® Luminescent Cell Viability Assay is a homogeneous method to determine the number of viable cells in culture based on quantitation of the ATP present, which signals the presence of metabolically active cells. […] The homogeneous assay procedure involves adding a single reagent (CellTiter-Glo® Reagent) directly to cells cultured in serum-supplemented medium.
The homogeneous “add-mix-measure” format results in cell lysis and generation of a luminescent signal proportional to the amount of ATP present.

| SMILES | reduction in cell viability to (FIG. 1, patient #5284, 5 μM, after 48 h) [%] | reduction in cell viability (compared to the untreated control) (FIG. 1, patient #5284, 7.5 μM) [%] | reduction in cell viability (compared to the untreated control) (FIG. 1, patient #5284, 10 μM) [%] | cell viability compared to control untreated spheroids (FIG. 1, patient #5284, 2.5-10 μM) | reduction in cell viability compared with carboplatin+paclitaxel (FIG. 1, patient #5284, 5, 7.5 and 10 μM, after 48 h) | reduction in cell viability compared with carboplatin+paclitaxel (FIG. 1, patient #5284, 5, 7.5 and 10 μM, after 72 h) | reduction in cell viability compared with vorinostat (FIG. 1, patient #5284, 5, 7.5 and 10 μM, all time points) | time dependence of cell viability (FIG. 1, patient #5284, higher concentrations) | time dependence of cell viability (FIG. 1, patient #5284, lower concentrations, 48 h to 96 h) | efficacy compared with positive controls (FIG. 2, patient #5285, feasibility study) | reduction in cell viability, combination therapy (FIG. 4, n=8, EDO-S101 5 μM, carboplatin 110 μM, paclitaxel 1.79 μM, 72 h) | effect of adding EDO-S101 to other treatments (FIG. 6, patient #5295, 72 h) | efficacy compared with carboplatin (FIG. 6, patient #5295, 72 h) | metabolic activity (ATP assay) (FIG. 6, patient #5295, 72 h) | effect of adding EDO-S101 to other treatments (FIG. 7, patient #5296, 72 h) | metabolic activity (ATP assay) (FIG. 7, patient #5296, 72 h) | metabolic activity (ATP assay) (FIG. 8, patient #5310, 72 h, samples from ovary and omentum) | metabolic activity (ATP assay) (FIG. 9, patient #5311, 72 h) | metabolic activity (ATP assay) (FIG. 10, patient #5329, 72 h) |
| --- | --- | --- | --- | --- | --- | --- | --- | --- | --- | --- | --- | --- | --- | --- | --- | --- | --- | --- | --- |
| Cn1c(CCCCCCC(=O)NO)nc2cc(N(CCCl)CCCl)ccc21 [EDO-S101, 7-(5-(bis(2-chloroethyl)amino)-1-methyl-1H-benzo[d]imidazol-2-yl)-N-hydroxyheptanamide] | 50 | ~80 | ~80 | A reduction in cell viability was observed | greater than that in spheroids treated with carboplatin+paclitaxel after 48 h | comparable after 72 h | greater than that in spheroids treated with vorinostat at all time points | did not decrease in a time dependent manner | decreased in a time dependent manner | better than both carboplatin+paclitaxel or vorinostat | median reduction in cell viability comparable to carboplatin+paclitaxel, but with enhanced average potency across the experimental group | further reduced metabolic activity when used in combination with carboplatin, paclitaxel and carboplatin+paclitaxel | comparable to that of carboplatin | shows a reduction in metabolic activity compared to the negative control | enhanced efficacy when in combination with carboplatin, paclitaxel and carboplatin+paclitaxel | enhanced reduction in metabolic activity compared to vorinostat, carboplatin or paclitaxel | effective in treating ovarian cancer from the omentum | comparable efficacy to that observed in spheroids treated with vorinostat | comparable or improved activity compared to vorinostat and carboplatin as monotherapies |
| CC(=O)O[C@H]1C(=O)[C@@]2(C)[C@H]([C@H](OC(=O)c3ccccc3)[C@]3(O)C[C@H](OC(=O)[C@H](O)[C@@H](NC(=O)c4ccccc4)c4ccccc4)C(C)=C1C3(C)C)[C@]1(OC(C)=O)CO[C@@H]1C[C@@H]2O [paclitaxel, reference compound] | – | – | – | – | – | – | – | – | – | – | – | – | – | negligible efficacy | – | – | – | – | – |
| O=C(CCCCCCC(=O)Nc1ccccc1)NO [vorinostat, reference compound] | – | – | – | – | – | – | – | – | – | – | – | – | – | negligible efficacy | – | – | – | – | – |
